Activity calls are given as the source filed them.
Key:
[1] = fluconazole-exposed Candida albicans growth modulators – fluorescence, retest, confirmation (AID 2467); assay type: functional, cell-based
Streptococcus = assay: GAS UMAA2166 growth inhibition – luminescence, BacTiterGlo, counter-screen for streptokinase expression inhibitor project, dose response (AID 1915); assay type: functional, organism-based;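 note: potency for reduction of bacterial viability or growth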
[2] = molecular target: T1, Replicative DNA helicase DnaB (Mycobacterium tuberculosis, UniProt P9WMR3); assay: DnaB intein splicing inhibitors, dose response, biochemical, cell-free fluorescence (AID 449749); assay type: functional
T1 sequence (P9WMR3 whole entry): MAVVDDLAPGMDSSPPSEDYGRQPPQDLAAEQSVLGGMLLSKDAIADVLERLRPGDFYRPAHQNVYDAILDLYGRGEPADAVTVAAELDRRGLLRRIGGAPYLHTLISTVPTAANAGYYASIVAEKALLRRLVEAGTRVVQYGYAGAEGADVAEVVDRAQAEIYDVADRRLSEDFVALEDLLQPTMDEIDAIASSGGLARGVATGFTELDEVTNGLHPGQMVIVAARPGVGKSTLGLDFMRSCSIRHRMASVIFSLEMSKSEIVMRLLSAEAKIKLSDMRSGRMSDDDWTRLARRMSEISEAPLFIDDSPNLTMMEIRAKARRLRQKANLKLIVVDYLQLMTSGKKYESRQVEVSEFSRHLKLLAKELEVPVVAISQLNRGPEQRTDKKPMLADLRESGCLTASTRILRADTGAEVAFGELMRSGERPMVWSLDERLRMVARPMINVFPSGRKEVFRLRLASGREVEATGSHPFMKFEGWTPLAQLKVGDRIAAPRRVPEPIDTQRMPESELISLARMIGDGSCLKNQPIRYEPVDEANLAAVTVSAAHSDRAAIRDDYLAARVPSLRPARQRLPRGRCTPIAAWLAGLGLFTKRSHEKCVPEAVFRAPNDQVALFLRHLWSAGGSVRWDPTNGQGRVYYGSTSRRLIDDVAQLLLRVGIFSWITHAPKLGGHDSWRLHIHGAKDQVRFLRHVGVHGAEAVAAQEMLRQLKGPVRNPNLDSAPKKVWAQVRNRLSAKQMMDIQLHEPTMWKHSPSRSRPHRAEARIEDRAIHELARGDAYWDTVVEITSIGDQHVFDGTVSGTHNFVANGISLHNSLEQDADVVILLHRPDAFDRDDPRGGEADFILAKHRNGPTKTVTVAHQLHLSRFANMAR

[3] = molecular target: T2, Histone-lysine N-methyltransferase NSD2 (Homo sapiens, UniProt O96028); assay type: biochemical
T2 sequence (O96028 whole entry): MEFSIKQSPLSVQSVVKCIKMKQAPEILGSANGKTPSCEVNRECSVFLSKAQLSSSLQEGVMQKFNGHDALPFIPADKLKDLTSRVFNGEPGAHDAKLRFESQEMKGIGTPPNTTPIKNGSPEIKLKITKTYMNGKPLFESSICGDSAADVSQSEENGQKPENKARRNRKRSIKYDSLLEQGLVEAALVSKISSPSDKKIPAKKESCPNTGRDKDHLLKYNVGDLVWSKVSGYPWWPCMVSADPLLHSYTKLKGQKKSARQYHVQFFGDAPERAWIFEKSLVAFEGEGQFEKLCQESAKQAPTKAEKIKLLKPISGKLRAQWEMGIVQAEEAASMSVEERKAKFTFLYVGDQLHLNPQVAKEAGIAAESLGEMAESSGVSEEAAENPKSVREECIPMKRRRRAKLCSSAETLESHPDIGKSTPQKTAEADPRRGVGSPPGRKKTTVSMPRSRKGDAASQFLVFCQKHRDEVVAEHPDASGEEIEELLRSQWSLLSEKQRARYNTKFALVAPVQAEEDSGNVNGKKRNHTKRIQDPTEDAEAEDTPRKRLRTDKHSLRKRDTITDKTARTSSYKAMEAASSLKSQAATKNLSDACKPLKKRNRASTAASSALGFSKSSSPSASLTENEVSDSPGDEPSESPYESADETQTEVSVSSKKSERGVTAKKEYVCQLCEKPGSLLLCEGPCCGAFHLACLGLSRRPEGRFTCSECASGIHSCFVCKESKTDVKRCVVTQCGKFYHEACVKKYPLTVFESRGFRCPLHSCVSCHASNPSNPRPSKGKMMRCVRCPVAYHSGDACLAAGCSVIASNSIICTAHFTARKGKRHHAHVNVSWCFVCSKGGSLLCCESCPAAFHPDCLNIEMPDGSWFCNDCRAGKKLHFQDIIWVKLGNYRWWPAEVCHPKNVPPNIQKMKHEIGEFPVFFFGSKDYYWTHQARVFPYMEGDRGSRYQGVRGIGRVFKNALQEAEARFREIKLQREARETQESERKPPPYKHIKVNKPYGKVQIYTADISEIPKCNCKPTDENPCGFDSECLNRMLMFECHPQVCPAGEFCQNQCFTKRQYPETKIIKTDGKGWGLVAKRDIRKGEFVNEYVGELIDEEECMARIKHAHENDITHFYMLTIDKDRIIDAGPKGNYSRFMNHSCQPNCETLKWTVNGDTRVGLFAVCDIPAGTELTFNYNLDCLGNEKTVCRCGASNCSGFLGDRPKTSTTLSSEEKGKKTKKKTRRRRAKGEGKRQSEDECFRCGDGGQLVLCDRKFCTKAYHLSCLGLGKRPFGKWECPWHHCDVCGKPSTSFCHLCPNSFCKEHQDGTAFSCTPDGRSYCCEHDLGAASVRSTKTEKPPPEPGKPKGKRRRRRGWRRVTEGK

| SMILES | EC50 [1] | EC50 (Streptococcus) | AC50 [2] | AC50 [3] |
| --- | --- | --- | --- | --- |
| O=C(Nc1cccc(NC(=O)c2ccccc2Cl)c1)c1ccc([N+](=O)[O-])o1 | 2.84 µM (active) | 20.4 µM (inconclusive) |  |  |
| COc1ccc(CC2=CC(=O)c3ccccc3C2=O)cc1 |  | 9.74 µM (active) | 7.49 µM (active) | 10.5 µM (active) |
| c1coc(-c2nnc(-c3ccco3)nn2)c1 |  |  | 5.79 µM (active) | 5.23 µM (active) |
| Cn1c(O)c(/C=N/NC(=O)c2cc3ccccc3cc2O)c2ccccc21 | 2.97 µM (active) |  |  |  |

Source: ChEMBL document CHEMBL1201862, “PubChem BioAssay data set” (2004)
